This passage reports IC50, Ki and Activity results from ChEMBL document CHEMBL1133244, “Solid-phase synthesis of an arylsulfone hydroxamate library” (Bioorg Med Chem Lett, 2000).

Structures are written as SMILES. Active and inactive are the calls of the source. The calls are words filed in the database; no cut-off is given here.

The target of assay [1] is T1, Interstitial collagenase (Homo sapiens, UniProt P03956).
T1 sequence (P03956 whole entry): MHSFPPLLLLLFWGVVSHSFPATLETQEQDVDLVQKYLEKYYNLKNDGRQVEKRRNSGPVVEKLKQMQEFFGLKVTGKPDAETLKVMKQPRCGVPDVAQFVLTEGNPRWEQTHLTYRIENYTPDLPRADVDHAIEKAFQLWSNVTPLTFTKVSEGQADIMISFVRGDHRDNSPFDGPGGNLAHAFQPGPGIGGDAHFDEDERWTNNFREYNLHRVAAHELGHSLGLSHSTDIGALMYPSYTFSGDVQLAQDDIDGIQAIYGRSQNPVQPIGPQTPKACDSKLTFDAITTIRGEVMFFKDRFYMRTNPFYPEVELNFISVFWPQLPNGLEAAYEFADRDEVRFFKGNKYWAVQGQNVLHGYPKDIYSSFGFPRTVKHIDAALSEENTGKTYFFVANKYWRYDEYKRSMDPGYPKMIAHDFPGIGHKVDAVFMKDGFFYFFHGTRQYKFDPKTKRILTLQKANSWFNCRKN
The assay can be described thus: Inhibition of Matrix metalloprotease-1.

Assay [2] deals with T2, Stromelysin-1 (Homo sapiens, UniProt P08254). As to the kind of experiment: Inhibitory activity against recombinant matrix metalloprotease-3.
Assay [3] has as its target T3, 72 kDa type IV collagenase (Homo sapiens, UniProt P08253). The assay can be described thus: Inhibitory activity against recombinant matrix metalloprotease-2.
Assay [4] deals with T3, 72 kDa type IV collagenase.
Description: In vitro inhibition of human recombinant Matrix metalloprotease-2.
The nature of assay [5]: In vitro for the inhibition of TNF alpha release by human peripheral blood monocytes (PBMs). It counts as functional.
Assay [6] has as its target T2, Stromelysin-1. As to the kind of experiment: In vitro inhibition of human recombinant Matrix metalloprotease-3.
Assay [7] has as its target Disintegrin and metalloproteinase domain-containing protein 17 (Homo sapiens) (UniProt P78536). As to the kind of experiment: Inhibitory activity against TACE.
For assay [8], the target named is T1, Interstitial collagenase. The assay can be described thus: In vitro inhibition of human recombinant Matrix metalloprotease-1.
In assay [9] the target is Phosphodiesterase 4 (Cavia porcellus). The assay can be described thus: Phosphodiesterase 4 inhibitory activity measured against guinea pig macrophage homogenate.

T3 sequence (P08253 whole entry): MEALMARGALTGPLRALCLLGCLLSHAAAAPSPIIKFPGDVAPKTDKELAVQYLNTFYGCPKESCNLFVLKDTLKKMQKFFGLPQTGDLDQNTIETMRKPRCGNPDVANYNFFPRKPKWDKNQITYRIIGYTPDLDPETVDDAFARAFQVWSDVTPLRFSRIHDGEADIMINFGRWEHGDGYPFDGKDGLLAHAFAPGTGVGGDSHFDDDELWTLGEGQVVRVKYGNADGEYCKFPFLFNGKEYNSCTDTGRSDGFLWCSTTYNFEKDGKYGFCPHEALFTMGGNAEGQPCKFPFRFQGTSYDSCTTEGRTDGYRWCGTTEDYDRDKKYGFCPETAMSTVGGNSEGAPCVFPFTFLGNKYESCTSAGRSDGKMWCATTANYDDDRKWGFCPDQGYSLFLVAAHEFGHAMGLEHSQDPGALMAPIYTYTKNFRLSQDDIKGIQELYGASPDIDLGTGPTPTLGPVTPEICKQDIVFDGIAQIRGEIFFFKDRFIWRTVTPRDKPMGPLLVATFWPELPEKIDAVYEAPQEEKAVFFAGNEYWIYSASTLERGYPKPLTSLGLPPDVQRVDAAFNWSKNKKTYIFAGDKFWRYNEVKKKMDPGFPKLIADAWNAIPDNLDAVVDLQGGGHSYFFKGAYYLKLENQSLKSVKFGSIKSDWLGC
T2 sequence (P08254 whole entry): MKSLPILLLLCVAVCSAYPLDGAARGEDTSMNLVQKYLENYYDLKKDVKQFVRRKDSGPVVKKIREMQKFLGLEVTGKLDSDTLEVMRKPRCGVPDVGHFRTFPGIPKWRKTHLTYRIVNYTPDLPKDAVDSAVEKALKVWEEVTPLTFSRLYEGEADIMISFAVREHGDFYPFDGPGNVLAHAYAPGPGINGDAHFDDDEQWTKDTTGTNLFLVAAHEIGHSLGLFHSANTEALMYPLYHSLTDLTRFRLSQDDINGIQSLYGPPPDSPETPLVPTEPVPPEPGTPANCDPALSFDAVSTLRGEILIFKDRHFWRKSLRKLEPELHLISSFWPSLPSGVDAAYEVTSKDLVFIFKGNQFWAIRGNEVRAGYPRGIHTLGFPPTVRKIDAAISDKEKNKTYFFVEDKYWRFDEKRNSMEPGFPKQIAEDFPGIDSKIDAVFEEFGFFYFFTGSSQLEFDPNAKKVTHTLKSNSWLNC
Disintegrin and metalloproteinase domain-containing protein 17 (Homo sapiens), sequence (P78536 whole entry, the tested form may be a part): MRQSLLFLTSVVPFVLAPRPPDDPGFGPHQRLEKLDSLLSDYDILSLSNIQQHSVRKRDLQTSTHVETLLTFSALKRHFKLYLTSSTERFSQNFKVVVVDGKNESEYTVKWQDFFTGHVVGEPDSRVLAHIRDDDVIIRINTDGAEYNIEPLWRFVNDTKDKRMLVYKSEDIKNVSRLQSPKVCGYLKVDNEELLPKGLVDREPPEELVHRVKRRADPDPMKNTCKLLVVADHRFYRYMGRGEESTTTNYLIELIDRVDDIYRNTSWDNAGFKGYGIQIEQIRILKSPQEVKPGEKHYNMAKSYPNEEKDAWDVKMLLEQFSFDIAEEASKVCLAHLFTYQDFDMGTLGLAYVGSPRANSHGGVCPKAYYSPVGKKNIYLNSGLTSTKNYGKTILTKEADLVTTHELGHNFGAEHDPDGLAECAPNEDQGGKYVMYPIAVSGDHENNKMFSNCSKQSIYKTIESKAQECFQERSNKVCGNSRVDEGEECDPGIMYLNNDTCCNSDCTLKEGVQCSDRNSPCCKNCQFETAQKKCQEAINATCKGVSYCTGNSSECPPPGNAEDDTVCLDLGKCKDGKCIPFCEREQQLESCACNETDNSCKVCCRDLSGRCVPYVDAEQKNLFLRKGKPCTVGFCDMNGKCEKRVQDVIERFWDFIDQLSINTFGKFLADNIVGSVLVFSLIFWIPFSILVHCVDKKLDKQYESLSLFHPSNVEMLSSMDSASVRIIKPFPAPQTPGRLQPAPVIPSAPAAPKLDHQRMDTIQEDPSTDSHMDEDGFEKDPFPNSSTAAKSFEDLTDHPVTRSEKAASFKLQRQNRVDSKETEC

A word on the IC50: it is the midpoint of a concentration-inhibition curve. With `COc1ccc(S(=O)(=O)C(CCCCc2ccccc2)CC(=O)NO)cc1OC` (stereo not drawn), the IC50 (against Interstitial collagenase [1]; at Stromelysin-1 [2]; in [3]) was over 10000 nM each time.
As usually defined, the Ki is the equilibrium dissociation constant of an inhibitor or competing ligand from its target. In the case of `CCCCC(CC)C(CC(=O)NO)S(=O)(=O)c1ccc(OC)cc1` (stereo not drawn), the Ki came to 4 nM in assay [4], 184 nM at Stromelysin-1 [6] and 357 nM on Interstitial collagenase [8]. Moreover, the IC50 in [5] is over 10000 nM. In addition, in assay [7], the result was inactive.
Taken in the same sequence, the figures for `COc1ccc(S(=O)(=O)C(CC(=O)NO)CC(C)CC(C)(C)C)cc1` (stereo not drawn) were 27 nM, 676 nM, 1720 nM, 8000 nM and “inactive”.
In the case of `COc1ccc(S(=O)(=O)C(CC(=O)NO)C2CCCCC2)cc1` (stereo not drawn), the Ki in assay [4] is 8 nM; on Stromelysin-1 [6], 86 nM; on Interstitial collagenase [8], 1710 nM. In [5], this compound yielded a 50% inhibitory concentration (IC50) of over 10000 nM. Further, the result in [7] was inactive.
With `COc1ccc(S(=O)(=O)C(CC(=O)NO)c2ccccc2)cc1` (stereo not drawn), the IC50 in assay [5] is over 10000 nM. In addition, the inhibition constant Ki on Stromelysin-1 [6] is 3300 nM; at Interstitial collagenase [8] it was over 10000 nM. Moreover, the result in [7] was inactive.
`COc1ccc(S(=O)(=O)C(CC(=O)NO)c2ccc(Oc3ccccc3)cc2)cc1` (stereo not drawn): the Ki (in assay [4]; on Stromelysin-1 [6]; on Interstitial collagenase [8]) was over 10000 nM each time. The IC50 in [5] is 730 nM; in [9] it was 280 nM. Also, the outcome in assay [7] was inactive.
On to `COc1ccc(S(=O)(=O)C(CCCCc2ccc3c(c2)OCO3)CC(=O)NO)cc1OC1CCCC1` (stereo not drawn), for which the IC50 was 11 nM in assay [9], over 10000 nM against Interstitial collagenase [1], over 10000 nM at Stromelysin-1 [2] and over 10000 nM in [3].
With `COc1ccc(S(=O)(=O)C(CCc2ccccc2)CC(=O)NO)cc1` (stereo not drawn), the figures for the Ki (in [4]; at Stromelysin-1 [6]; at Interstitial collagenase [8]) were 43 nM, 350 nM and 2160 nM, respectively. Further, the concentration for half-maximal inhibition (IC50) in [5] was over 10000 nM. Moreover, the result in assay [7] was inactive.
Turning to `COc1ccc(S(=O)(=O)C(COCc2ccccc2)CC(=O)NO)cc1` (stereo not drawn), the inhibition constant Ki in assay [4] is 38 nM; on Stromelysin-1 [6], 1430 nM; at Interstitial collagenase [8], over 10000 nM. For the same compound, the IC50 in [5] is over 10000 nM. For the same compound, the result in assay [7] was inactive.
As for `COc1ccc(S(=O)(=O)C(CCC2CCCCC2)CC(=O)NO)cc1` (stereo not drawn), the inhibition constant Ki in [4] worked out at 36 nM; at Stromelysin-1 [6], 590 nM; at Interstitial collagenase [8], 400 nM. This compound yielded an IC50 in assay [5] of over 10000 nM. Further, the outcome in [7] was inactive.
`COc1ccc(S(=O)(=O)C(CCCCc2ccccc2)CC(=O)NO)cc1OC1CCCC1` (stereo not drawn): the IC50 in [9] is 6.9 nM; against Interstitial collagenase [1] it was over 10000 nM; on Stromelysin-1 [2] it was over 10000 nM; in assay [3] it was over 10000 nM.
Regarding `COc1ccc(S(=O)(=O)C(CC(=O)NO)c2ccc(-c3ccccc3)cc2)cc1` (stereo not drawn), the Ki (in assay [4]; at Stromelysin-1 [6]; at Interstitial collagenase [8]) was over 10000 nM throughout. Further, the IC50 in assay [5] came out at 4400 nM; in assay [9], 3600 nM. Further, in [7], the outcome was inactive.
`COc1ccc(S(=O)(=O)C(CC(=O)NO)C(C)c2ccccc2)cc1` (stereo not drawn): the inhibition constant (Ki) in assay [4] was 8 nM; at Stromelysin-1 [6], 300 nM; on Interstitial collagenase [8], 1710 nM. The compound further had a concentration for half-maximal inhibition (IC50) in [5] of over 10000 nM. Further, the outcome in assay [7] was inactive.
For `CCCCCCC(CC(=O)NO)S(=O)(=O)c1ccc(OC)cc1` (stereo not drawn), the results for the Ki (in assay [4]; at Stromelysin-1 [6]; at Interstitial collagenase [8]) were 31 nM, 734 nM and 9590 nM, respectively. In addition, the half-inhibitory concentration (IC50) in assay [5] came to 1400 nM. The outcome in [7] was inactive.
In the case of `CCOC(=O)C1CCCC(C(CC(=O)NO)S(=O)(=O)c2ccc(OC)cc2)C1` (stereo not drawn), the Ki in [4] was 0.8 nM; on Stromelysin-1 [6], 60 nM; on Interstitial collagenase [8], 1010 nM. Moreover, the half-inhibitory concentration (IC50) in assay [5] is 4600 nM. Further, in assay [7], the outcome was inactive.
On to `COC(=O)c1ccc(C(CC(=O)NO)S(=O)(=O)c2ccc(OC)cc2)cc1` (stereo not drawn), for which the inhibition constant (Ki) in [4] worked out at 88 nM; on Stromelysin-1 [6], 4420 nM; at Interstitial collagenase [8] it was 1900 nM. In addition, in [5], the 50% inhibitory concentration (IC50) is over 10000 nM. The result in [7] was inactive.
For the compound `COc1ccc(S(=O)(=O)C(CC(=O)NO)c2ccc(OCc3ccccc3)cc2)cc1` (stereo not drawn), the Ki (in assay [4]; at Stromelysin-1 [6]; on Interstitial collagenase [8]) was over 10000 nM throughout. Also, the IC50 is 1200 nM in assay [5] and 520 nM in assay [9]. The outcome in assay [7] was inactive.
For the compound `COc1ccc(S(=O)(=O)C(CC(=O)NO)c2ccc(OC(C)C)cc2)cc1` (stereo not drawn), the Ki (in assay [4]; on Stromelysin-1 [6]; on Interstitial collagenase [8]) was over 10000 nM in each case. In assay [5], this compound came in with a half-inhibitory concentration (IC50) of over 10000 nM. Further, in assay [7], the outcome was inactive.
`COc1ccc(S(=O)(=O)C(CCCc2ccccc2)CC(=O)NO)cc1` (stereo not drawn): the values for the Ki (in assay [4]; at Stromelysin-1 [6]; at Interstitial collagenase [8]) were 44 nM, 1390 nM and 2580 nM, respectively. Also, the midpoint of inhibition in assay [5], the IC50, lay at 5000 nM. Also, the outcome in [7] was inactive.
For the compound `CCCCC(CC(=O)NO)S(=O)(=O)c1ccc(OC)cc1` (stereo not drawn), the Ki in assay [4] worked out at 30 nM; on Stromelysin-1 [6], 404 nM; at Interstitial collagenase [8], 4170 nM. This compound also registered an IC50 in assay [5] of over 10000 nM. The outcome in [7] was inactive.
